These compounds were tested against Recombinant human DPP-IV (Homo sapiens, UniProt P27487) (assay: DPP-IV assay in vitro (H-Ala-Pro-AFC fluorescence)). Settings: recombinant human DPP-IV 7.8 ng/ml, 30 min pre-incubation, H-Ala-Pro-AFC 50 μM.
Format: biochemical
Method: DPP-IV Assay Solutions of test compounds in varying concentrations (10^−5 mol/L, 10^−6 mol/L, 10^−7 mol/L, 10^−8 mol/L, 10^−9 mol/L, 10^−10 mol/L, 10^−11 mol/L, and 10^−12 mol/L) were prepared in dimethyl sulfoxide (DMSO) and then diluted into assay buffer comprising: 10 mM Tris-HCl pH 8.0, 0.2 M NaCl, and 0.1% BSA. Recombinant human DPP-IV (7.8 ng/ml final concentration) was added to the dilutions and pre-incubated for 30 mins at room temperature before the reaction was initiated with H-Ala-Pro-AFC (50 μM final concentration). The total volume of the reaction mixture was 100 μl.
The fluorescence of the mixture was measured after 30 minutes (excitation at 405 nm; emission at 535 nm). Inhibition constants (IC50) were calculated by GraphPad Prism.

Sequence of Recombinant human DPP-IV (P27487 whole entry): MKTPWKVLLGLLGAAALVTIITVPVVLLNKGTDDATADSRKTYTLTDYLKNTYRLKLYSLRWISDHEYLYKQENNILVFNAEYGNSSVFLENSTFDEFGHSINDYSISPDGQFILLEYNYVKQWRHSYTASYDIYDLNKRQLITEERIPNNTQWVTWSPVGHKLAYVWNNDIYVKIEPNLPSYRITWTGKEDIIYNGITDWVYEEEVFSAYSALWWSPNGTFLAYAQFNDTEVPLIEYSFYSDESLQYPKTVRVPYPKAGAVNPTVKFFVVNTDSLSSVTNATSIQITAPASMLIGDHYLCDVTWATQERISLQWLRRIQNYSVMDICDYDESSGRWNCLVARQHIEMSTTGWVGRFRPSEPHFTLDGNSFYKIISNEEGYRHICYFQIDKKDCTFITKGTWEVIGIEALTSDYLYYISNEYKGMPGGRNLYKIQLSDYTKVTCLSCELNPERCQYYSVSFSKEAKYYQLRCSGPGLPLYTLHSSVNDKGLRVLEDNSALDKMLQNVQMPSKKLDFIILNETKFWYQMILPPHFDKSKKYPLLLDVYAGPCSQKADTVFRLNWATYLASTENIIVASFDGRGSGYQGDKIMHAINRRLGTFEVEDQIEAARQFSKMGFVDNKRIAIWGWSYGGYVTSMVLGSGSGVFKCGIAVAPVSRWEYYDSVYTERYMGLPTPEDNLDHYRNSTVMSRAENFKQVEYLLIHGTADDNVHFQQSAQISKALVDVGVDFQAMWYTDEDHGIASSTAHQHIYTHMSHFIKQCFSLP

Going from Cc1nnc(N2CCC[C@@H](N)C2)n(Cc2cc(F)ccc2Cl)c1=O [Example 4, (R)-3-(3-aminopiperidin-1-yl)-4-(2-chloro-5-fluorobenzyl)-6-methyl-1,2,4-triazin-5(4H)-one] to Cc1nnc(N2CCC[C@@H](N)C2)n(Cc2cc(F)ccc2Br)c1=O [Example 2, (R)-3-(3-aminopiperidin-1-yl)-4-(2-bromo-5-fluorobenzyl)-6-methyl-1,2,4-triazin-5(4H)-one], the IC50 falls from 640 nM to 242 nM (2.6-fold). The second is the more potent here.

With Cc1nnc(N2CCC[C@@H](N)C2)n(Cc2ccccc2C#N)c1=O [Example 1, (R)-2-((3-(3-aminopiperidin-1-yl)-6-methyl-5-oxo-1,2,4-triazin-4(5H)-yl)methyl)benzonitrile] the IC50 was 22 nM.

Source: patent publication US9340523B2, “Certain dipeptidyl peptidase inhibitors” (FOCHON PHARMA, INC., priority 2009, dated 2016)
